From ChEMBL document CHEMBL1201862, “PubChem BioAssay data set” (2004) come the findings set out here.

Each structure is given as a SMILES string. Active and inactive are the calls of the source.

Experiment [1] deals with Beta-lactamase (Salmonella choleraesuis (strain SC-B67), UniProt Q5J463). Briefly: Epi-absorbance-based counterscreen for selective VIM-2 inhibitors: dose response biochemical high throughput screening assay to identify inhibitors of TEM-1 serine-beta-lactamase.
The target of experiment [2] is T1, Beta-lactamase (Pseudomonas aeruginosa, UniProt Q79MP6). Briefly: […] counterscreen for selective VIM-2 inhibitors: dose response biochemical high throughput screening assay to identify inhibitors of IMP-1 metallo-beta-lactamase.
T1 sequence (Q79MP6 whole entry): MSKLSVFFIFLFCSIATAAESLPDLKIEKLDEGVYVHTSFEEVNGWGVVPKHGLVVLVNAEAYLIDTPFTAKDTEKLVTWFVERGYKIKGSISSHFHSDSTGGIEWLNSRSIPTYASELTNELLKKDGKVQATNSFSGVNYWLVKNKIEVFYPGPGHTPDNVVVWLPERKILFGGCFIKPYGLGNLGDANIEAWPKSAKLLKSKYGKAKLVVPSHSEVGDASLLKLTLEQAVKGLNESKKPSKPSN
The target of experiment [3] is T1, Beta-lactamase. In words: inhibition of IMP-1 beta-lactamase activity – biochemical, epi-absorbance, selectivity assay for VIM-2 inhibitor project, dose response (AID 1920).
For experiment [4], the target named is Cyclin-dependent kinase 5/CDK5 activator 1 (Homo sapiens, UniProt Q00535). Briefly: blockade of human CDK5 activity – biochemical, cherry-picked samples, set 2, dose response (AID 504545).
The nature of experiment [5]: viability of uninfected HEp-2 cells – cell-based, HTS, cytotoxicity control for RSV inhibitor project, dose response (AID 2410). The format is functional. Particulars: human respiratory syncytial virus.
The nature of experiment [6]: Luminescence Cell-Based Dose Retest to Confirm Inhibitors of Cancer Stem Cells. [Related pubchem assays (depositor defined):AID2717, AID2721]. Type of experiment: functional. The note with it: Homo sapiens.
The target of experiment [7] is Scavenger receptor class B member 1 (Mus musculus, UniProt Q61009). In words: mouse SR-BI DiI-HDL uptake blockers – ldlA[mSR-BI] cells, fluorescence, cherry pick, dose response (AID 493194).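 Note: cellular uptake of fluorescent DiI-labeled HDL measured as cell fluorescence.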 Type of experiment: functional, cell-based.
Chain of Scavenger receptor class B member 1 (Q61009 whole entry): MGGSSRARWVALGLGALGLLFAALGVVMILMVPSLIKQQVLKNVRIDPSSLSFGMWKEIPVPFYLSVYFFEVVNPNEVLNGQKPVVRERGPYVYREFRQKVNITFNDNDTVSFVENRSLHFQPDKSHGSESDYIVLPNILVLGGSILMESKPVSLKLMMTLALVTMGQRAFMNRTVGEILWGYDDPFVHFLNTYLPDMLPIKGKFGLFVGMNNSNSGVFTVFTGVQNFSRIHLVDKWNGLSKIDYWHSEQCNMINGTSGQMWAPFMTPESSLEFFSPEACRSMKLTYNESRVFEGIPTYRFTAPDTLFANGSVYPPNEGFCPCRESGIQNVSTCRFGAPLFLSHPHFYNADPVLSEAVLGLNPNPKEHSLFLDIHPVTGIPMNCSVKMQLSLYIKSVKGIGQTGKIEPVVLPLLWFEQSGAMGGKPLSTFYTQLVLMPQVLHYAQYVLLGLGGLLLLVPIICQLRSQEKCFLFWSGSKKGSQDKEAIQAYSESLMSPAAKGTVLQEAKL
The target of another experiment is Cytochrome P450 2C9 (Homo sapiens, UniProt P11712). Particulars: Potency.
Chain of Cytochrome P450 2C9 (P11712 whole entry): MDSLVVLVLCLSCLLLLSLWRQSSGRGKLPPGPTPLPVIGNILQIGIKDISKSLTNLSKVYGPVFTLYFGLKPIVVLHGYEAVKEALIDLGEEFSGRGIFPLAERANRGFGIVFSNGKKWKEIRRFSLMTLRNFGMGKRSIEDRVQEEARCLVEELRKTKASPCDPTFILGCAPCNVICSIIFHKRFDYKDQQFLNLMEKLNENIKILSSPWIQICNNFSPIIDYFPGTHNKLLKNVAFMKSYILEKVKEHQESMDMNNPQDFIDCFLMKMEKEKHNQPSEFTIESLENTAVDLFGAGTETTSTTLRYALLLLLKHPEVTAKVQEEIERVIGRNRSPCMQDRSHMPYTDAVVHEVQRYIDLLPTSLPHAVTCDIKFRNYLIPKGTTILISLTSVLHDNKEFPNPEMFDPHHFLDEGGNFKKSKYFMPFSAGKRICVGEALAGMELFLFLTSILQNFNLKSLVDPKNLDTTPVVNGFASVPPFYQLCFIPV
Experiment [8] concerns the target T2, Histone-lysine N-methyltransferase NSD2 (Homo sapiens, UniProt O96028).
T2 sequence (O96028 whole entry): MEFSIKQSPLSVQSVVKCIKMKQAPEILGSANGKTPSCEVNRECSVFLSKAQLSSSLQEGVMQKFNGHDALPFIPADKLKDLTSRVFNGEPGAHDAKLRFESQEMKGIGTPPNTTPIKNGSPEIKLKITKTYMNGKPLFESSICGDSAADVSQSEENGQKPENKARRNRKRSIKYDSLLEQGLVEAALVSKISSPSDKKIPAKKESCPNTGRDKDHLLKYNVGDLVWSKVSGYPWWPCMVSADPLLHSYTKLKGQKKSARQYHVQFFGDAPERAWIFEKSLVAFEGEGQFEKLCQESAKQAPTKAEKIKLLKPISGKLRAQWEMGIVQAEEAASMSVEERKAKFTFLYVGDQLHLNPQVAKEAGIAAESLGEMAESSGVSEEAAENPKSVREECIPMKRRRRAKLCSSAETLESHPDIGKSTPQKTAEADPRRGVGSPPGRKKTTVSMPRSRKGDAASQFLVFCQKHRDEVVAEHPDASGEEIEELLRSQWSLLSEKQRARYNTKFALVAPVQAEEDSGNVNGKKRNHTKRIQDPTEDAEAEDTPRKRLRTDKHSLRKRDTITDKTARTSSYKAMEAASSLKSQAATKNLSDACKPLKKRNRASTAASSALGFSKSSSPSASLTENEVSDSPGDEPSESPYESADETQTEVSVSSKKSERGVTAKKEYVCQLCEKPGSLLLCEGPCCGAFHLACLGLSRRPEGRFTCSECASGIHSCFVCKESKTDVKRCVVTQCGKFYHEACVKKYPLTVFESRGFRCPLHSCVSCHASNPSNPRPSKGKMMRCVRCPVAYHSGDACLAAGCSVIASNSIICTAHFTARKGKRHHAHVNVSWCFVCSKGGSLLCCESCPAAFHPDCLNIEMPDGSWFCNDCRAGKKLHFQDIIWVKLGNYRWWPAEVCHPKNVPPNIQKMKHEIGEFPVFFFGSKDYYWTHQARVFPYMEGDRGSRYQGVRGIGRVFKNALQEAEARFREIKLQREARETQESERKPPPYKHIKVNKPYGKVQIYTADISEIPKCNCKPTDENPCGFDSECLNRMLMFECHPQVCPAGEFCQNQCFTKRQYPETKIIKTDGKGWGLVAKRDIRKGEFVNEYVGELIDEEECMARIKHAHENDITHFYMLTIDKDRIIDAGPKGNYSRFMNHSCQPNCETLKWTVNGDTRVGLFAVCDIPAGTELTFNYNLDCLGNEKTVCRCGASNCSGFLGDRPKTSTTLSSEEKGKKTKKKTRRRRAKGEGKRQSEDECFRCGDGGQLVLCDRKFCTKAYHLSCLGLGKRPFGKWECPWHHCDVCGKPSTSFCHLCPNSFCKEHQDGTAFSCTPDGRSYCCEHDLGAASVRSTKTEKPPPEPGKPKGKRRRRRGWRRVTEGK
The format is biochemical.

Experiment [9] concerns the target Peroxisome proliferator-activated receptor gamma/Nuclear receptor corepressor 2 (Homo sapiens, UniProt P37231+Q9Y618). The format is functional.
In experiment [10] the target is Ras and Rab interactor 1/Tyrosine-protein kinase ABL1 (Homo sapiens, UniProt P00519+Q13671). Type of experiment: functional.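 Note: biochemical TR-FRET dose-response test measuring inhibition of binding between Rin1 and Abl proteins.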
Chain of Ras and Rab interactor 1/Tyrosine-protein kinase ABL1 (P00519 whole entry): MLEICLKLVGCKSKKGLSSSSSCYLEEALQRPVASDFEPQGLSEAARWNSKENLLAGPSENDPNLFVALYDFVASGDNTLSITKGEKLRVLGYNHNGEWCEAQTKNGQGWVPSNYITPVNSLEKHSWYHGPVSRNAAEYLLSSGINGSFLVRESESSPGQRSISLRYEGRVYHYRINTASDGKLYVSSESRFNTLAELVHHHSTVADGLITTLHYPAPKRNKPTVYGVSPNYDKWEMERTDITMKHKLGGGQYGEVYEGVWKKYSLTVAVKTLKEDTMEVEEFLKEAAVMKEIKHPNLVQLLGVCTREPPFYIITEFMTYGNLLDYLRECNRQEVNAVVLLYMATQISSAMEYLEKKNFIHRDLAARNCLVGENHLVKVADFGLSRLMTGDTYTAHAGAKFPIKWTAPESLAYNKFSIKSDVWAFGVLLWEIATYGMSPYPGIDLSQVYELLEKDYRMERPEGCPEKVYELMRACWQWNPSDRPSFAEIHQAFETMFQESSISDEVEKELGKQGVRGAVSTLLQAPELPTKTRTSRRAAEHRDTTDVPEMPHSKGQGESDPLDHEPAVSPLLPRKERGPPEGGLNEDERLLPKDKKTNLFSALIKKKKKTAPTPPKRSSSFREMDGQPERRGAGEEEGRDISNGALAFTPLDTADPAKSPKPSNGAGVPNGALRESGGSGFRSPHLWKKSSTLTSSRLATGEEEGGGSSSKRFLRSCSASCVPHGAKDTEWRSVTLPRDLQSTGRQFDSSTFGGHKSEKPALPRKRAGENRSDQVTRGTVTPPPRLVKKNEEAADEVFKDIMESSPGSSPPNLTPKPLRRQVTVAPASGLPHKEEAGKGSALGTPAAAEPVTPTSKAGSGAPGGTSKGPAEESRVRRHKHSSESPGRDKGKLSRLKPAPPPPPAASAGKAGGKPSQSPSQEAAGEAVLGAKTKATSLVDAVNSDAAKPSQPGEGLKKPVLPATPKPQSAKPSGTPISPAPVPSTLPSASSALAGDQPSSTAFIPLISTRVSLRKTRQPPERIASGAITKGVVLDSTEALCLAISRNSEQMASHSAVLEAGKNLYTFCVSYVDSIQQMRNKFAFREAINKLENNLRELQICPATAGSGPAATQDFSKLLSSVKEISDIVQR
Chain of Ras and Rab interactor 1/Tyrosine-protein kinase ABL1 (Q13671 whole entry): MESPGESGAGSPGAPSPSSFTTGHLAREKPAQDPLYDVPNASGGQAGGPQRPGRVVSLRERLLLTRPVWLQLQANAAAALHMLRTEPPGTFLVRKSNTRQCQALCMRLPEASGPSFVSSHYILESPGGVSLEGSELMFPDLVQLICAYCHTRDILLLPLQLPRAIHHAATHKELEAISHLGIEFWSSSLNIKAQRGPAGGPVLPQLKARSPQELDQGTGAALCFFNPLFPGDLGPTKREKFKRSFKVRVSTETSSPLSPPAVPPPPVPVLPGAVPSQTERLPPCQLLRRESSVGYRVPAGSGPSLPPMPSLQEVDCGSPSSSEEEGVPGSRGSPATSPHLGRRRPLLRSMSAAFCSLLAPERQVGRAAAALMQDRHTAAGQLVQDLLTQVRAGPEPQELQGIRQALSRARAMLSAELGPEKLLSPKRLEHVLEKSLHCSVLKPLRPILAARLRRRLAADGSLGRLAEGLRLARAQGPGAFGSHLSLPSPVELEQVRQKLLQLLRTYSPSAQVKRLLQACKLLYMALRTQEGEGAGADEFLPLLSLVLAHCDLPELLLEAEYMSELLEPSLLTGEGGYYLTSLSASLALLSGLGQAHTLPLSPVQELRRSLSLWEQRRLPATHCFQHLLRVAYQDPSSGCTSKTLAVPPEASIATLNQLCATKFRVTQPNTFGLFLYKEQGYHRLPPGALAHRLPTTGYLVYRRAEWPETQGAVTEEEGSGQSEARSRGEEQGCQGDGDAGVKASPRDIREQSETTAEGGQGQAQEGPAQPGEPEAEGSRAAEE
The target in experiment [11] is Photoreceptor-specific nuclear receptor (Homo sapiens, UniProt Q9Y5X4). The format is functional.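 Note: potency for compounds that break the NR2E3 corepressor complex and count as activators.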
Experiment [12] can be described thus: A cytotoxicity screen of small molecule inhibitors of the PhoP region in Salmonella typhi identified in the primary screen. [Related pubchem assays: 1850, 1864, 1985 ]. The format is functional.
Experiment [13] addresses T3, Polyadenylate-binding protein 1 (Homo sapiens, UniProt P11940). Briefly: MLLE binding blockers, Cy5 peptide tracer – biochemical, fluorescence polarization, Cy5-PAM2 peptide, secondary, miRNA deadenylation inhibitor project, dose response (AID 602260). Type of experiment: functional. Particulars: read-out: IC50_Mean.
The target of experiment [14] is T3, Polyadenylate-binding protein 1. Briefly: MLLE domain peptide-binding blockers, IC50 – biochemical, fluorescence polarization, FITC-PAM2 peptide, dose response (AID 602259). The format is functional. Particulars: read-out: IC50_Mean.
For the next experiment, the target named is Cytochrome P450 3A4 (Homo sapiens, UniProt P08684). The note with it: Potency.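 Note: confirmatory qHTS run detecting inhibitors and substrates of CYP3A4.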
Chain of Cytochrome P450 3A4 (P08684 whole entry): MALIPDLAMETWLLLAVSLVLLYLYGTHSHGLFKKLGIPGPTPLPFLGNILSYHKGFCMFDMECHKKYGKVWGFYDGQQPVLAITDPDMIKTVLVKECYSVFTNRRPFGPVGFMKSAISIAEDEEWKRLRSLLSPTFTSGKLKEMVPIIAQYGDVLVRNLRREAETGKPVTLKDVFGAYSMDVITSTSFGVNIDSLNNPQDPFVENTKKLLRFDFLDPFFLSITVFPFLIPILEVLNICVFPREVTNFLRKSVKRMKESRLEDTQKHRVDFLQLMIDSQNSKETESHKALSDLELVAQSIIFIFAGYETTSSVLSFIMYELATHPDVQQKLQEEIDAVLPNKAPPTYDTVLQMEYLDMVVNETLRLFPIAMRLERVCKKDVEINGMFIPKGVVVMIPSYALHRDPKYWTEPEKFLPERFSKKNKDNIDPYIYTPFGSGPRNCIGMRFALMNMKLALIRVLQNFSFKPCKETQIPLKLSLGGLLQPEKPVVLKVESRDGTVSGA
The target in a further experiment is T4, Streptokinase A (Streptococcus pyogenes serotype M1, UniProt P10520).
T4 sequence (P10520 whole entry): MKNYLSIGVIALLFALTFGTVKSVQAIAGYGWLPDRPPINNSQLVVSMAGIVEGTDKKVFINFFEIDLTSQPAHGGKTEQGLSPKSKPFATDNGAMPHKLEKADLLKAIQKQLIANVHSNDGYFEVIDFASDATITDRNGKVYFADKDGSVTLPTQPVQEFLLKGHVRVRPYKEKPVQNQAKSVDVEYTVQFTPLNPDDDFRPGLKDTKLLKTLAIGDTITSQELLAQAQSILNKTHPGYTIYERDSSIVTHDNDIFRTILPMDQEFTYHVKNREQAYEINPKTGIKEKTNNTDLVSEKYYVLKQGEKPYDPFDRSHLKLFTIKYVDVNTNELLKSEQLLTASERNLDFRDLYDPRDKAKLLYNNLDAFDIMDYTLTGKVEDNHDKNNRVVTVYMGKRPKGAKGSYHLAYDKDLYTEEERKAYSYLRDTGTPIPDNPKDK
Briefly: viability-normalized secreted streptokinase activity reduction – plasminogen activation absorbance, OD405, dose response (AID 1914).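 Note: secreted streptokinase activity via plasminogen activation per viability signal from cell pellet.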 Type of experiment: functional, Streptococcus pyogenes M1 GAS.

Experiment [15] concerns the target Neurotensin receptor type 1 (Homo sapiens, UniProt P30989). Type of experiment: functional.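 Note: Image-based confirmatory dose-response assay measuring agonist activity at NTR1; NTR1-expressing U2OS osteosarcoma cells imaged for beta-arrestin GFP spot formation; agonist potency where compounds increase beta-arrestin recruitment.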
The test system of the next experiment is Streptococcus. Briefly: GAS UMAA2166 growth inhibition – luminescence, BacTiterGlo, counter-screen for streptokinase expression inhibitor project, dose response (AID 1915).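 Note: potency for reduction of bacterial viability or growth.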 The format is functional, organism-based.
The target in experiment [16] is T5, Calpain-2 catalytic subunit (Sus scrofa, UniProt P43367).
T5 sequence (P43367 whole entry): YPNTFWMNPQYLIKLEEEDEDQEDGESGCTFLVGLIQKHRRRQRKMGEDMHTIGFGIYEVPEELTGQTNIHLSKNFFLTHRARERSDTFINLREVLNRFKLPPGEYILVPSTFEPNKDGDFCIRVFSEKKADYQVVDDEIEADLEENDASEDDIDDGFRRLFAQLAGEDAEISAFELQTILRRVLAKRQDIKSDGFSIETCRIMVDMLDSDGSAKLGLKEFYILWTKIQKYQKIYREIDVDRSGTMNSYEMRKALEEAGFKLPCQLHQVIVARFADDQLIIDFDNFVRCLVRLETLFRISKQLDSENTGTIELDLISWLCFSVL
In words: m-calpain protease blockers, concentration series – biochemical, fluorogenic peptide substrate, dose response (AID 1420). The format is functional.

For experiment [17], the system named is Streptococcus sp. 'group A'. In words: Streptococcus pyogenes SK(-)GAS viability under kanamycin – luminescence, BacTiterGlo, confirmation, counter-screen for streptokinase expression inhibitor project, dose response (AID 1900). Type of experiment: functional, organism-based.
Another experiment addresses Genome polyprotein (dengue virus type 2, UniProt P29990). Briefly: flavivirus cap methylation enzyme inhibition – biochemical, confirmation dose response, primary screen (AID 588689). The format is functional.

T3 sequence (P11940 whole entry, the tested form may be a part): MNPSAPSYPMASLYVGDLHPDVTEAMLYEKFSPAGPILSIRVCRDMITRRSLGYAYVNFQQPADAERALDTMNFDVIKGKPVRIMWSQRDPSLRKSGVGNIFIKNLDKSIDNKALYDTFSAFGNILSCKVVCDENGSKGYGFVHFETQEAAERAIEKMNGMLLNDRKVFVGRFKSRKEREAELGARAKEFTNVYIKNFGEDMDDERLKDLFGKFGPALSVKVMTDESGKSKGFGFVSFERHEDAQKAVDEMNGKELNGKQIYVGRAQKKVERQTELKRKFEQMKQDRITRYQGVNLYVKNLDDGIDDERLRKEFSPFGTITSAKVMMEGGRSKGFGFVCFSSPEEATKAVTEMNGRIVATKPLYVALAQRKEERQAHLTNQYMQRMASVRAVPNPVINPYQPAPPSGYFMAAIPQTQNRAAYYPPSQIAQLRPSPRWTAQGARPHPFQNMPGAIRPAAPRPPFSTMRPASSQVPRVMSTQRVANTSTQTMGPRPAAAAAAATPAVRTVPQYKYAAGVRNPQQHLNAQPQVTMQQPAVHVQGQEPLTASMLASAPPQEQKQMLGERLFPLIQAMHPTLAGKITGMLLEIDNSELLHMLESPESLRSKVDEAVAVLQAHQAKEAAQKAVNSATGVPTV
Chain of Beta-lactamase (Salmonella choleraesuis (strain SC-B67), UniProt Q5J463) (Q5J463 whole entry): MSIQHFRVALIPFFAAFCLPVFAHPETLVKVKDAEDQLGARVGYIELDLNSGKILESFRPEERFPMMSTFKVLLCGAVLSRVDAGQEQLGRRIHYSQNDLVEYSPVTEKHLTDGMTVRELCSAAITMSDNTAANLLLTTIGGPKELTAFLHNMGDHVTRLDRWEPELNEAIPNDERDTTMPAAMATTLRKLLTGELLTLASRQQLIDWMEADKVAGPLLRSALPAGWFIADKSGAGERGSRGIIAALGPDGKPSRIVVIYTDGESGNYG
Chain of Neurotensin receptor type 1 (P30989 whole entry): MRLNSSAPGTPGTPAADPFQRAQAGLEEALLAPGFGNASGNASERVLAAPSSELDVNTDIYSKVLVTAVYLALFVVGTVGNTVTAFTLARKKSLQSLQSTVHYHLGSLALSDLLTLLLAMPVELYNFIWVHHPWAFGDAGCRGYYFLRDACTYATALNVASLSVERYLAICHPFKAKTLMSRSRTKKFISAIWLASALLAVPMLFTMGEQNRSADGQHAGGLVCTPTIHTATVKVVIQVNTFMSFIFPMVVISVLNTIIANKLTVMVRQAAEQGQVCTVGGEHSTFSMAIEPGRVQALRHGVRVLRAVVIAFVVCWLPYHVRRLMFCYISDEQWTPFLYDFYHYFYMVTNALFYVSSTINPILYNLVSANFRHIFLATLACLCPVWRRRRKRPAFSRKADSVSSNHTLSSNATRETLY

`O=C1Nc2cc(C(=O)N3CCC(N4CCCCC4)CC3)ccc2S/C1=C\c1ccccc1`: the IC50 at Beta-lactamase [1], on Beta-lactamase [2] and on Beta-lactamase [3] was > 59.6 µM (inactive) in each case. The AC50 in experiment [4] was 21.2 µM (active).
For `COc1ccc(-n2sc3c(c2=S)-c2cc(OC)ccc2NC3(C)C)cc1`, in experiment [5], the CC50 was 18.4 µM (active). Also, the AC50 in [6] was 2.53 µM (active); in [7], 16.1 µM (active).
For `C/C=C/OC(=O)NC(c1ccccc1)[C@@]1(C(=O)OCC)CCCC1=O` (stereo not given in full), the AC50 on Cytochrome P450 2C9 is 3.98 µM (inconclusive).
As to `Oc1cc(OCc2ccccc2)ccn1`, the AC50 in experiment [8] was 11.5 µM (active). The IC50 was 16.6 µM (not active) in experiment [9], 0.0261 µM (active) in [10] and > 39.8 µM (not active) in [11].
For `O=C(NC(=S)Nc1ccc(S(=O)(=O)Nc2nccs2)cc1)c1cccnc1`, in [12], the EC50 is > 50 µM (active). Moreover, the IC50 in experiment [13] and in experiment [14] was > 66 µM (inactive) each time.
Take `CC(C)OCCCNC(=O)c1ccc(C2SCC(=O)N2Cc2ccco2)cc1` (stereo not given): the AC50 in experiment [7] is 1 µM (active).
`COc1ccc(OC)c(-c2ccccc2/C=N/NS(=O)(=O)c2ccc(C)cc2)c1`: the AC50 on Cytochrome P450 2C9 was 7.94 µM (inconclusive); on Cytochrome P450 3A4 it was 3.16 µM (inconclusive).
As to `CC(C)C[C@H](NC(=O)c1[nH]cnc1C(=O)N[C@@H](C)c1ccccc1)C(=O)OCc1ccccc1`, the EC50 is > 150 µM (inconclusive) on Streptokinase A, 5.4 µM (active) in [15], 40.7 µM (active) in the experiment on Streptococcus and 0.656 µM (active) in experiment [17]. The IC50 in experiment [16] was 5.23 µM (not active).
As to `COc1cc(/C=C(/C#N)C(=O)Nc2ccccc2)c(Br)cc1OCc1ccc(C(=O)O)cc1`, the EC50 in [12] was > 50 µM (active). On Genome polyprotein, the IC50 was 66.6 µM (active).
